Series [1] deals with T1, plasmin originating from swine blood (Sus scrofa, UniProt P06867).
T1 construct: from tissue; host or cells: swine blood
As to the kind of experiment: Stabilizing effect of amino acids on plasmin solution, residual plasmin activity (casein) on storage. It counts as biochemical. As to conditions: 35.5°C, employed concentration 0.25 millimole per plasmin unit. Here is the method: (§1) Usually the activity of plasmin solutions is expressed in the number of plasmin units per milliliter. However, no definition of a plasmin unit has until now been internationally adopted. Here and in the following one plasmin unit means the amount of plasmin causing in 20 minutes the formation of decomposition products being soluble in perchloric acid and having an extinction of 1 unit at 275 mμ under the following experimental conditions:
(§2) By the addition of the perchloric acid a precipitation takes place, and the two test tubes now stand for 20 minutes whereafter filtration two times through filtering paper (J. H. Munktells unrivalled Genuine Swedish Filtering Paper No. 0.9 cm) is carried out. The extinction of the two solutions is thereafter measured at 275 mμ in a Beckman D U Spectrophotometer (1 cm quartz cuvette), the value of the sample having stood for 2 minutes being used as blind value.
If not, a saturated amino acid solution is employed.

Series [2] concerns the target T2, plasmin (Sus scrofa, UniProt P06867). Type of series: biochemical, swine. To be noted: for % activity after 120 min. at 25°C / % activity after 60 min. at 25°C: 0.3 plasmin units per ml. How it is done: as §1
as §2, with “1 […] THE PLASMIN SOLUTION THE ACTIVITY OF WHICH IS TO BE […] THE PH of which is 7.5 is added to two test tubes each containing in 0.4 molar phosphate buffer (pH 7.50) 1 […] a 3 per cent's solution of Hammarsten Casein said solution having been preheated to 35.5°C. […] By” for “By”
The stabilizing effect of a long series of amino acids has been examined in connection with plasmin originating from swine blood and dissolved in phosphate buffer (pH 7.5). […] If not, a saturated amino acid solution is employed.

The target in series [3] is T3, plasmin solution from swine blood (Sus scrofa, UniProt P06867).
T3 construct: from tissue; host or cells: swine blood
T3 sequence (P06867 97-579 limits assumed): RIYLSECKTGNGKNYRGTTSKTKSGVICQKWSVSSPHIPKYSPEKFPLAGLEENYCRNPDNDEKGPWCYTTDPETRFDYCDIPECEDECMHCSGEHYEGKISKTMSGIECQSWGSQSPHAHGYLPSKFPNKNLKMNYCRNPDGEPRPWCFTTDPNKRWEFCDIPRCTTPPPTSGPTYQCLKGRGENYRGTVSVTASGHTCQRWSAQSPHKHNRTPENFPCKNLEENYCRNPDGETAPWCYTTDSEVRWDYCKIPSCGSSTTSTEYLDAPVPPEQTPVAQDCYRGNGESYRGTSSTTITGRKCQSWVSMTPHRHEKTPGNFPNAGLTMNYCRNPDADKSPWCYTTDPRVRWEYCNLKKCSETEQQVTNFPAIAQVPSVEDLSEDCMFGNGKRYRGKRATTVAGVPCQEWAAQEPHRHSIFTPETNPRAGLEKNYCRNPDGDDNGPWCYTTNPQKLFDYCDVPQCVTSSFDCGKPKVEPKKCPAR
T3 sequence (P06867 580-809 limits assumed): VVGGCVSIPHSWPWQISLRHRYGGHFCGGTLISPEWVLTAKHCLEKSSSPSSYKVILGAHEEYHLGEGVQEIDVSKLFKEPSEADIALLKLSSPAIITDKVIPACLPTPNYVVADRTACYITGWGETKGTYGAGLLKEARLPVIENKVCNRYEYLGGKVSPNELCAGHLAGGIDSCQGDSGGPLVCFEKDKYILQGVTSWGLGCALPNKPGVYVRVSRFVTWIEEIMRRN
As to the kind of experiment: Plasmin activity at high amino acid concentration and after dilution (reversible inactivation). It counts as biochemical. How it is done: as §1
as §2, with “1 […] OF THE PLASMIN SOLUTION THE ACTIVITY OF WHICH IS TO BE DETERMINED AND THE PH of which is 7.5 is added to two test tubes each containing in 0.4 molar phosphate buffer (pH 7.50) 1 milliliter of a 3 per cent's solution of Hammarsten Casein said solution having been preheated to 35.5°C. […] By” for “By”
By way of illustration reference may be made to the following experiments:
a. A plasmin solution from swine blood and containing about 0.4 plasmin unit per milliliter and 2 millimoles of L-lysine per plasmin unit is produced in phosphate buffer (pH 7.5) whereafter the plasmin activity of the mixture is determined and compared with the activity of the plasmin solution without the amino acid addition and the activity of the mixture is expressed in per cent of the activity of the unmixed plasmin solution. Thereafter a dilution of the solution is carried out expressed in the original volume of the plasmin solution divided by the volume of the plasmin solution after the dilution, and the activity of the diluted solutions is determined.

In series [4] the target is T2, plasmin. As to the kind of experiment: Initial loss of plasmin on adjusting concentrated acidified solution to pH 7.5. It counts as biochemical. As to conditions: 10 plasmin units per ml adjusted to pH 7.5 at 25°C. The source says:
In the tests referred to above use has been made of plasmin solutions having a plasmin content of 0.3 and 0.4 units, respectively, per milliliter. When using more concentrated solutions, e.g. containing 10 plasmin units per milliliter, an appreciable initial loss of plasmin will occur immediately by the adjustment of the pH-value from 2-3 up to neutral reaction unless amino acids are present in sufficient amounts. Thus, in the course of a few minutes an initial loss of 20 per cent may e.g. arise when an acidified plasmin solution containing 10 plasmin units per milliliter is adjusted to pH 7.5 at 25°C even if lysine is present in the solution in an amount of 0.002 millimole per plasmin unit. Such initial loss can, however, be avoided by increasing the amino acid concentration.

Series [5] has as its system partially purified plasmin from human plasma. To be noted: cited from earlier work; for effect on autolysis of plasmin: neutral solutions, 37°C.
The target of series [6] is plasmin (Homo sapiens, UniProt P00747). To be noted: plasmin about 0.047 to about 0.229 units per ml; cited from earlier work.
Series [7] can be described thus: Stability of plasmin solutions without amino acid.
Source text: Further, it is possible to produce a sterile plasmin solution which is adjusted to pH 1 to 4. […] By mixing such solution before use with a sterile amino acid solution which has either been buffered with one of the normal acid-base-buffer systems or has a sufficient amino acid content, it is possible to obtain a neutral stable plasmin solution.
The nature of series [8]: Solubility of plasmin in neutral aqueous solution. As to conditions: no amino acid. Type of series: physicochemical. An excerpt:
While a neutral solution of plasmin in water becomes turbid due to a precipitation of plasmin when the plasmin concentration is 0.01 unit and more per milliliter, it is possible by the addition of an amino acid to produce clear neutral plasmin solutions having a plasmin concentration up to 25 units per milliliter.

Where [9] appears, read: 0.010 millimole L-lysine per plasmin unit.
Setting [10] is: 0.021 millimole L-lysine per plasmin unit.
The mark [11] stands for this setting: 0.042 millimole L-lysine per plasmin unit.
Setting [12] is: pH 7.5, read-out: Activity expressed in per cent of the total activity.

We go through 15 molecules from US3950513A, “Process of stabilizing therapeutically useful plasmin solutions” (Novo Terapeutisk Laboratorium A/S, priority 1969, dated 1976).

“Also recorded” adds a separate entry of the source. Read-outs that look alike come from different tables or passages of the source. Where a SMILES comes first, the peptide text is derived from it.

T2 sequence (P06867 97-579 limits assumed): as the sequence (P06867 97-579 limits assumed) above
T2 sequence (P06867 580-809 limits assumed): as the sequence (P06867 580-809 limits assumed) above
T1 sequence (P06867 97-579 limits assumed): as the sequence (P06867 97-579 limits assumed) above
T1 sequence (P06867 580-809 limits assumed): as the sequence (P06867 580-809 limits assumed) above

Turning to `CSCCC(N)C(=O)O` (racemic) [DL-methionine], the “stabilizing effect (in words)” value in series [1] is recorded as “possible to obtain a stabilizing effect”.
As for `CN(CC(=O)O)C(=N)N` [Creatine], in series [1], the “stabilizing effect (in words)” value was “considerably better than that of glycine and DL-valine”.
On the same count and under the same terms, the same measure for `NCC(=O)O` [Glycine]: “rather insignificant; also recorded: faintly stabilizing effect”; for `NCC(=O)NCC(=O)O` [Glycyl glycine] (H-Gly-Gly-OH): “strongly stabilizing effect”.
Regarding `N=C(N)NCC(=O)O` [Guanidino acetic acid], the “stabilizing effect (in words)” value in series [1] is “considerably better than that of glycine and DL-valine”.
As for `N[C@@H](CC(=O)O)C(=O)O` [L(+)-aspartic acid], the “stabilizing effect (in words)” value in series [1] is on record as “almost identical with that of glycine”.
Consider `O=C(O)[C@@H]1C[C@@H](O)CN1` [L(-)-hydroxyproline], for which the “stabilizing effect (in words)” value in series [1] was “limited stabilizing effect”.
Regarding `O=C(O)[C@@H]1CCCN1` [L(-)-proline], the “stabilizing effect (in words)” value in series [1] is “limited stabilizing effect”.
On to `NCCCC[C@H](N)C(=O)O` [L-lysine], for which the “% activity after 120 min. at 25°C” value in series [2] (0.005 millimole L-lysine per plasmin unit, without lysine 70) amounted to 78%. Moreover, the “% activity after 60 min. at 25°C” value in series [2] (0.005 millimole L-lysine per plasmin unit, without lysine 77) was determined as 88%. In series [2] (setting [9]), the “% activity after 60 min. at 25°C” value came out at 91% and the “% activity after 120 min. at 25°C” value is 84%. Besides, in series [2] (setting [10]), the “% activity after 60 min. at 25°C” value is listed as 99% and the “% activity after 120 min. at 25°C” value was 91%. In series [2] (setting [11]), the “% activity after 60 min. at 25°C” value is 100% and the “% activity after 120 min. at 25°C” value worked out at 99%. In addition, in series [2] (25°C), the “lysine concentration necessary to avoid a plasmin loss by standing for two hours” value is 0.04 millimole per plasmin unit and the “lysine concentration sufficient to allow only a plasmin loss of about 20 per cent by standing for 2 hours” value was “about 0.005 millimole per plasmin unit”. In addition, the “lysine concentration necessary to allow only a plasmin loss of about 20 per cent by standing for 2 hours” value in series [2] (35.5°C) was “about 0.1 millimole per plasmin unit”. Further, the “lysine concentration necessary to avoid a plasmin loss by standing for two hours” value in series [2] (35.5°C, plasmin concentration of 0.4 plasmin units per ml) was “above 0.25 millimole per plasmin unit”. Moreover, in series [3] (Table IV), the “reversibility of the inactivation by dilution” value was “reversible”. Moreover, in series [3] (setting [12]), the activity at 160000 µM was 97%, the activity at 320000 µM came to 100%, the activity at 480000 µM amounted to 92% and the activity at 640000 µM turned out to be 84%. Besides, the activity at 800000 µM in series [3] (setting [12]) stood at 88%. Besides, the “lysine concentration above which it has an inactivating effect on the plasmin solution” value in series [3] (plasmin concentration 1/2 unit per millimole lysine) is given as “above 0.32 millimole per ml”. The “initial loss of plasmin in the course of a few minutes” value in series [4] (lysine 0.002 millimole per plasmin unit) was 20 per cent. Besides, in series [4] (lysine 0.04 millimole per plasmin unit), the “initial loss of plasmin” value was “avoid completely an initial loss”. Moreover, the “stabilizing effect (in words)” value in series [1] is “strongly stabilizing effect”. For the same molecule, the “stabilizing effect (in words)” value in series [1] (listed as lysine) was “most vigorous stabilizing effect”.
Take `CN` [methylamine]: the “effect on autolysis of plasmin” value in series [5] is on record as “may inhibit this autolysis”.
On to `NC(N)=O` [urea], for which the “effect on autolysis of plasmin” value in series [5] was “may inhibit this autolysis”.
`CC(=O)N[C@@H](CCCNC(=N)N)C(=O)O` [α-N-acetyl-L-arginine]: the “stabilizing effect (in words)” value in series [1] is recorded as “excellent stabilizing effect”.
As for `NCCCC(=O)O` [γ-amino butyric acid], the “stabilizing effect (in words)” value in series [1] is recorded as “stabilize considerably better than β-alanine”.
Turning to `NCCCCCC(=O)O` [ε-amino caproic acid], in series [6], the “concentration at which it acts as an inhibitor of the action of plasmin” value is “above 0.03 M” and the “concentration at which it exhibits an enhancing effect on the action of plasmin” value is “up to 0.02 M”. Besides, the activity at 800000 µM in series [3] (Undiluted, 0.8 millimole amino acid per ml, 2 millimoles per plasmin unit, about 0.4 unit per ml, pH 7.5, read-out: Activity expressed in per cent of the total activity) was 57%. Moreover, the activity at 160000 µM in series [3] (pH 7.5, Dilution 1:5, 0.16 millimole amino acid per ml, read-out: Activity expressed in per cent of the total activity) came to 93%. In addition, in series [3] (pH 7.5, Dilution 2:5, 0.32 millimole amino acid per ml, read-out: Activity expressed in per cent of the total activity), the activity at 320000 µM is 84%. In series [3] (pH 7.5, Dilution 3:5, 0.48 millimole amino acid per ml, read-out: Activity expressed in per cent of the total activity), the activity at 480000 µM was 71%. Also, in series [3] (pH 7.5, Dilution 4:5, 0.64 millimole amino acid per ml, read-out: Activity expressed in per cent of the total activity), the activity at 640000 µM came to 65%. In addition, in series [1], the “stabilizing effect (in words)” value was “stabilize considerably better than β-alanine”. Further, the “stabilizing effect (in words)” value in series [1] (listed as ε-amino caproic acids) is given as “strongly stabilizing effect”.

B1: plasmin: proteolytic enzyme plasmin in aqueous solution without amino acid addition (protein, UniProt P00747 20-580; P00747 581-810, looked up)
Plasmin heavy chain A: EPLDDYVNTQGASLFSVTKKQLGAGSIEECAAKCEEDEEFTCRAFQYHSKEQQCVIMAENRKSSIIIRMRDVVLFEKKVYLSECKTGNGKNYRGTMSKTKNGITCQKWSSTSPHRPRFSPATHPSEGLEENYCRNPDNDPQGPWCYTTDPEKRYDYCDILECEEECMHCSGENYDGKISKTMSGLECQAWDSQSPHAHGYIPSKFPNKNLKKNYCRNPDRELRPWCFTTDPNKRWELCDIPRCTTPPPSSGPTYQCLKGTGENYRGNVAVTVSGHTCQHWSAQTPHTHNRTPENFPCKNLDENYCRNPDGKRAPWCHTTNSQVRWEYCKIPSCDSSPVSTEQLAPTAPPELTPVVQDCYHGDGQSYRGTSSTTTTGKKCQSWSSMTPHRHQKTPENYPNAGLTMNYCRNPDADKGPWCFTTDPSVRWEYCNLKKCSGTEASVVAPPPVVLLPDVETPSEEDCMFGNGKGYRGKRATTVTGTPCQDWAAQEPHRHSIFTPETNPRAGLEKNYCRNPDGDVGGPWCYTTNPRKLYDYCDVPQCAAPSFDCGKPQVEPKKCPGR
Plasmin light chain B: VVGGCVAHPHSWPWQVSLRTRFGMHFCGGTLISPEWVLTAAHCLEKSPRPSSYKVILGAHQEVNLEPHVQEIEVSRLFLEPTRKDIALLKLSSPAVITDKVIPACLPSPNYVVADRTECFITGWGETQGTFGAGLLKEAQLPVIENKVCNRYEFLNGRVQSTELCAGHLAGGTDSCQGDSGGPLVCFEKDKYILQGVTSWGLGCARPNKPGVYVRVSRFVTWIEGVMRNN
modifications: Plasmin
notes: proteolytic enzyme plasmin in aqueous solution without amino acid addition
Turning to B1, the “plasmin concentration above which neutral solutions must be considered unstable” value in series [7] (criterion: highest permissible loss 20 per cent in 2 hours at 25°C) is given as “more than 0.1 unit per milliliter”. Also, in series [7] (pH 1 to 4, stored at 4°-5°C), the “stability of acid sterile plasmin solution” value is reported as “stable for several months”. Further, in series [7] (pH-value of 2 to 3, temperatures up to 35°C), the “stability of aqueous plasmin solution” value is reported as “practically completely stable”. In series [8], the “plasmin concentration at which a neutral solution in water becomes turbid due to precipitation of plasmin” value was no less than 0.01 unit per milliliter. Also, the “stability in neutral solutions” value in series [5] (rapid loss of proteolytic activity at 37°C) was “unstable”.
